Reference: patent US20240277800A1, “PHARMACEUTICAL COMPOSITION COMPRISING MACROCOSINE COMPOUND AND METHOD FOR PREPARING MACROCOSINE COMPOUND” (priority 2021, published 2024)
In brackets after ≈: the same amount, converted by molar mass. Like-named read-outs stand apart in the source and are kept apart here.

Key:
[1] = system: Mycobacterium avium ATCC 700898; assay: Antibacterial activity against nontuberculous mycobacteria, resazurin MIC50; assay type: cell-based; conditions: ATCC700898
[2] = system: Mycobacterium intracellulare ATCC 13950; assay: as above; assay type: cell-based; conditions: ATCC13950
C. difficile = assay: Antibacterial activity against Clostridium difficile, agar medium dilution MIC (CLSI); assay type: cell-based; conditions: Clostridioides difficile
IL-6 = assay: Anti-inflammatory efficacy: IL-6 secretion in LPS-treated RAW 264.7 cells (ELISA); assay type: cell-based, mouse; conditions: RAW 264.7 cells, 5, 10, 20, 40 ug/mL plus 1 ug/ml LPS, 24 hours, versus LPS only
Description: (§1) In order to confirm the anti-inflammatory effect of the micrococcin compound (Compound 13; Micrococcin P2) prepared in Example 1 of the present invention, an inflammatory cytokine secretion amount was measured.
(§2) RAW 264.7 cells which are mouse-derived macrophage cell lines were distributed from Korean Cell Line Bank (KCLB), and a DMEM (Dulbeccon's modified Eagle's medium; PAA, Austria) medium including 1% Penicillin-Streptomycin and 10% FBS (fetal bovine serum; Gibco Laboratories) was used. Cells were cultured under the conditions of 37° C. and 5% CO2.
(§3) The cultured RAW 264.7 cells were dispensed at 2x10^5 cells/well in a 24-well plate, the micrococcin compound (Compound 13; Micrococcin P2) prepared in Example 1 was treated by concentrations (5, 10, 20, 40 ug/mL) and then treated 1 ug/ml of lipopolysaccharide (LPS), and culture was performed in an incubator (5% CO2, 37° C.) for 24 hours.
(§4) A control group was a cell group which was not treated, and as a negative control group, a cell group treated with only LPS was used.
(§5) After completion of culture, a medium of each well was collected (at 4° C., 12,000 rpm for 10 minutes) and centrifuged, a supernatant was taken, and the concentration of inflammatory cytokine (IL-6, Il-1B) in the medium was quantified using an ELISA kit (R&D system, BD).

[3] = system: C. difficile Ribotype 027; assay: Efficacy in Clostridium difficile-infected mouse model (survival); assay type: in vivo; conditions: C57BL/6J mouse, 30 mg/kg orally once a day for 5 days
[4] = system: Mycobacterium abscessus ATCC 19977; assay: Antibacterial activity against nontuberculous mycobacteria, resazurin MIC50; assay type: cell-based; conditions: Mycobacteroides abscessus, ATCC19977
Il-1B = assay: Anti-inflammatory efficacy: IL-1B secretion in LPS-treated RAW 264.7 cells (ELISA); assay type: cell-based, mouse; conditions: RAW 264.7 cells, 5, 10, 20, 40 ug/mL plus 1 ug/ml LPS, 24 hours, versus LPS only
Description: as §1, §2, §3, §4, §5

M. tuberculosis = assay: Antibacterial activity against tuberculosis bacteria, resazurin (REMA) MIC50; assay type: cell-based; conditions: Mycobacterium tuberculosis, read-out: MIC50
[5] = Mycobacterium avium ATCC 700898, read-out: MIC50
[6] = Mycobacterium intracellulare ATCC 13950, read-out: MIC50
[7] = ATCC9689, C. difficile ATCC 9689, read-out: MIC
[8] = ATCC17858, C. difficile ATCC 17858, read-out: MIC
[9] = ATCC43255, C. difficile ATCC 43255, read-out: MIC
[10] = ATCC51695, C. difficile ATCC 51695, read-out: MIC
[11] = ATCCBAA1871, C. difficile ATCC BAA-1871, read-out: MIC
[12] = C. difficile Clinical isolate #1, read-out: MIC
[13] = C. difficile Clinical isolate #2, read-out: MIC

Molecule CC[C@H]1OC(=O)[C@H](C)[C@@H](O[C@H]2C[C@@](C)(OC)[C@@H](O)[C@H](C)O2)[C@H](C)[C@@H](O[C@@H]2O[C@H](C)C[C@H](N(C)C)[C@H]2O)[C@](C)(OC)C[C@@H](C)C(=O)[C@H](C)[C@@H](O)[C@]1(C)O [CLR, Clarithromycin] has an MIC50 [1, 5] of 0.076 µM (≈ 0.0568 µg/mL) and an MIC50 [2, 6] of 0.143 µM (≈ 0.107 µg/mL).
Cc1ncc([N+](=O)[O-])n1CCO [MDZ, Metronidazole] was tested, and the MIC (C. difficile; [7]) was 1 µg/mL (≈ 5.84 µM), the MIC (C. difficile; [8]) was 1 µg/mL (≈ 5.84 µM) and the MIC (C. difficile; [9]) was 2 µg/mL (≈ 11.7 µM). For the same molecule, the MIC (C. difficile; [10]) was 2 µg/mL (≈ 11.7 µM), the MIC (C. difficile; [11]) was 2 µg/mL (≈ 11.7 µM) and the MIC (C. difficile; [12]) was 1 µg/mL (≈ 5.84 µM). It also gave an MIC (C. difficile; [13]) of 2 µg/mL (≈ 11.7 µM).
Molecule COc1c(N2C[C@@H]3CCCN[C@@H]3C2)c(F)cc2c(=O)c(C(=O)O)cn(C3CC3)c12 [MXF, Moxifloxacin] has an MIC (C. difficile; [7]) of 1 µg/mL (≈ 2.49 µM), an MIC (C. difficile; [8]) of 2 µg/mL (≈ 4.98 µM) and an MIC (C. difficile; [9]) of 2 µg/mL (≈ 4.98 µM). It also gave an MIC (C. difficile; [10]) of 2 µg/mL (≈ 4.98 µM), an MIC (C. difficile; [11]) of 32 µg/mL (≈ 79.7 µM) and an MIC (C. difficile; [12]) of 32 µg/mL (≈ 79.7 µM). It also gave an MIC (C. difficile; [13]) of 2 µg/mL (≈ 4.98 µM).
In the case of C/C=C(\NC(=O)c1csc(-c2csc(-c3ccc4c(n3)-c3csc(n3)[C@H]([C@@H](C)O)NC(=O)c3csc(n3)[C@H](C(C)C)NC(=O)c3csc(n3)/C(=C/C)NC(=O)[C@H]([C@@H](C)O)NC(=O)c3csc-4n3)n2)n1)C(=O)NCC(C)=O [Micrococcin P2], the “secretion amount of IL-6” value (IL-6) is reported as “significantly decreased”, the “death by C. difficile recurrence after drug administration” value ([3]; followed about 2 weeks) is reported as “no death individual occurred by C. difficile recurrence” and the survival rate ([3]; survival followed about 2 weeks) is reported as 100%. For the same molecule, the MIC50 [4] was 0.654 µM (≈ 0.747 µg/mL), the “secretion amount of IL-1B” value (Il-1B) was “significantly decreased” and the MIC50 ([1]; Mycobacterium avium) was 0.028 µM (≈ 0.032 µg/mL). For the same molecule, the MIC50 (M. tuberculosis; H37RV, M. tuberculosis H37Rv) was 0.089 µM (≈ 0.102 µg/mL), the MIC50 (M. tuberculosis; Pan-susceptible isolate #2 (Pan-S2)) was 0.199 µM (≈ 0.227 µg/mL) and the MIC50 (M. tuberculosis; Pan-susceptible isolate #4 (Pan-S4)) was 0.356 µM (≈ 0.407 µg/mL). For the same molecule, the MIC50 (M. tuberculosis; Pan-susceptible isolate #6 (Pan-S6)) was 0.354 µM (≈ 0.404 µg/mL), the MIC50 (M. tuberculosis; Pan-susceptible isolate #7 (Pan-S7)) was 0.208 µM (≈ 0.238 µg/mL) and the MIC50 ([2]; Mycobacterium intracellulare) was 0.033 µM (≈ 0.0377 µg/mL). For the same molecule, the MIC (C. difficile; [7]) was 0.5 µg/mL (≈ 0.438 µM), the MIC (C. difficile; [8]) was 1 µg/mL (≈ 0.875 µM) and the MIC (C. difficile; [9]) was 2 µg/mL (≈ 1.75 µM). It also gave an MIC (C. difficile; ATCC51695) of 1 µg/mL (≈ 0.875 µM), an MIC (C. difficile; [11]) of 1 µg/mL (≈ 0.875 µM) and an MIC (C. difficile; [12]) of 1 µg/mL (≈ 0.875 µM). For the same molecule, the MIC (C. difficile; [13]) was 1 µg/mL (≈ 0.875 µM).
CO[C@H]1/C=C/O[C@@]2(C)Oc3c(C)c(O)c4c(O)c(c(/C=N/N5CCN(C)CC5)c(O)c4c3C2=O)NC(=O)/C(C)=C\C=C\[C@H](C)[C@H](O)[C@@H](C)[C@@H](O)[C@@H](C)[C@H](OC(C)=O)[C@@H]1C [RIF, Rifampicin] showed an MIC50 [1, 5] of 6.6 µM (≈ 5.43 µg/mL) and an MIC50 [2, 6] of 0.38 µM (≈ 0.313 µg/mL).
For CN[C@H](CC(C)C)C(=O)N[C@H]1C(=O)N[C@@H](CC(N)=O)C(=O)N[C@H]2C(=O)N[C@H]3C(=O)N[C@H](C(=O)N[C@H](C(=O)O)c4cc(O)cc(O)c4-c4cc3ccc4O)[C@H](O)c3ccc(c(Cl)c3)Oc3cc2cc(c3O[C@@H]2O[C@H](CO)[C@@H](O)[C@H](O)[C@H]2O[C@H]2C[C@](C)(N)[C@H](O)[C@H](C)O2)Oc2ccc(cc2Cl)[C@H]1O [VAN, Vancomycin], the MIC (C. difficile; [7]) was 2 µg/mL (≈ 1.38 µM), the MIC (C. difficile; [8]) was 1 µg/mL (≈ 0.69 µM) and the MIC (C. difficile; [9]) was 1 µg/mL (≈ 0.69 µM). For the same molecule, the MIC (C. difficile; [10]) was 2 µg/mL (≈ 1.38 µM), the MIC (C. difficile; [11]) was 1 µg/mL (≈ 0.69 µM) and the MIC (C. difficile; [12]) was 4 µg/mL (≈ 2.76 µM). It also gave an MIC (C. difficile; [13]) of 1 µg/mL (≈ 0.69 µM).
